The source made the active and inactive calls. No cut-off for these calls is given here.
Key:
Mus musculus [1] = test: Anti-inflammatory activity against zymosan A-induced Sabra mouse model assessed as reduction in paw swelling at 5 to 50 mg/kg, ip measured after 6 hrs; assay type: functional, organism-based; conditions: dose 5-50 mg/kg
Mus musculus [2] = test: Anti-inflammatory activity against zymosan A-induced Sabra mouse model assessed as reduction in pain sensation at 5 to 50 mg/kg, ip measured after 6 hrs; assay type: functional, organism-based; conditions: dose 5-50 mg/kg
Mus musculus [3] = test: Anti-inflammatory activity against zymosan A-induced Sabra mouse model assessed as reduction in TNF-alpha level at 5 to 50 mg/kg, ip measured after 24 hrs by ELSA analysis; assay type: functional, organism-based; conditions: dose 5-50 mg/kg
Mus musculus [4] = test: Anti-inflammatory activity against zymosan A-induced Sabra mouse model assessed as reduction in pain sensation administered intraperitoneally and measured after 6 hrs; assay type: functional, organism-based; conditions: dose 5-50 mg/kg, route ip
Mus musculus [5] = test: Anti-inflammatory activity against zymosan A-induced Sabra mouse model assessed as reduction in paw swelling at 10 to 25 mg/kg, ip measured after 6 hrs; assay type: functional, organism-based; conditions: dose 10-25 mg/kg
BMDM [6] = test: Inhibition of IL-1beta mRNA expression in LPS-stimulated human bone-marrow derived macrophage cells at 5 uM preincubated with compound for 3 hrs followed by LPS stimulation for 3 hrs and measured 30 mins after ATP addition by qRT-PCR analysis; assay type: functional, cell-based; conditions: time 6.5 hrs
Mus musculus [7] = test: Anti- inflammatory activity against C57BL/6 mouse model of LPS-induced peritonitis assessed as reduction in plasma IL-6 level at 5 mg/kg, ip pre-administered for 60 mins followed by LPS-stimulation and measured after 90 mins by ELISA analysis; assay type: functional, organism-based; conditions: time 150.0 min
Mus musculus [8] = test: Anti- inflammatory activity against C57BL/6 mouse model of LPS-induced peritonitis assessed as reduction in plasma TNF alpha level at 5 mg/kg, ip pre-administered for 60 mins followed by LPS-stimulation and measured after 90 mins by ELISA analysis; assay type: functional, organism-based; conditions: time 150.0 min
BMDM [9] = test: Inhibition of IL-1beta protein expression in LPS-stimulated human bone-marrow derived macrophage cells at 5 uM preincubated with compound for 3 hrs followed by LPS stimulation for 3 hrs and measured 30 mins after ATP addition by ELISA analysis; assay type: functional, cell-based; conditions: time 6.5 hrs
Mus musculus [10] = test: Anti- inflammatory activity against C57BL/6 mouse model of LPS-induced peritonitis assessed as reduction in plasma IL-1beta level at 5 mg/kg, ip pre-administered for 60 mins followed by LPS-stimulation and measured after 90 mins by ELISA analysis; assay type: functional, organism-based; conditions: time 150.0 min
Mus musculus [11] = test: Anti-inflammatory activity against zymosan A-induced Sabra mouse model assessed as reduction in TNF-alpha level at 10 to 25 mg/kg, ip measured after 24 hrs by ELISA analysis; assay type: functional, organism-based; conditions: dose 10-25 mg/kg
Mus musculus [12] = test: Anti-inflammatory activity against zymosan A-induced Sabra mouse model assessed as reduction in pain sensation at 10 to 25 mg/kg, ip measured after 6 hrs; assay type: functional, organism-based; conditions: dose 10-25 mg/kg
Mus musculus [13] = test: Anti-inflammatory activity against zymosan A-induced Sabra mouse model assessed as reduction in paw swelling at 5 to 25 mg/kg, ip measured after 6 hrs; assay type: functional, organism-based; conditions: dose 5-25 mg/kg
Mus musculus [14] = test: Anti-inflammatory activity against zymosan A-induced Sabra mouse model assessed as reduction in […] at 5 to 25 mg/kg, ip measured after 6 hrs; assay type: functional, organism-based; conditions: dose 5-25 mg/kg
Mus musculus [15] = test: Anti-inflammatory activity against zymosan A-induced Sabra mouse model assessed as reduction in TNF-alpha level at 5 to 25 mg/kg, ip measured after 24 hrs by ELISA analysis; assay type: functional, organism-based; conditions: dose 5-25 mg/kg
Mus musculus [16] = test: Anti- inflammatory activity against C57BL/6 mouse model of LPS-induced peritonitis assessed as reduction in plasma IL-6 level at 10 mg/kg, ip pre-administered for 60 mins followed by LPS-stimulation and measured after 90 mins by ELISA analysis; assay type: functional, organism-based; conditions: time 150.0 min
Mus musculus [17] = test: Anti- inflammatory activity against C57BL/6 mouse model of LPS-induced peritonitis assessed as reduction in plasma IL-1beta level at 10 mg/kg, ip pre-administered for 60 mins followed by LPS-stimulation and measured after 90 mins by ELISA analysis; assay type: functional, organism-based; conditions: time 150.0 min
Mus musculus [18] = test: Anti- inflammatory activity against C57BL/6 mouse model of LPS-induced peritonitis assessed as reduction in plasma TNF alpha level at 10 mg/kg, ip pre-administered for 60 mins followed by LPS-stimulation and measured after 90 mins by ELISA analysis; assay type: functional, organism-based; conditions: time 150.0 min
Mus musculus [19] = test: Anti-inflammatory activity against zymosan A-induced Sabra mouse model assessed as reduction in TNF-alpha level administered intraperitoneally and measured after 24 hrs by ELISA analysis; assay type: functional, organism-based; conditions: route ip

Structure (SMILES): C=C(C)[C@@H]1CCC(C)=C[C@H]1c1c(O)cc(CCCCC)c(C)c1O
- Activity (Mus musculus [1]): Active
- Activity (Mus musculus [2]): Active
- Activity (Mus musculus [3]): Active

Structure (SMILES): C=C(C)[C@@H]1CCC(C)=C[C@H]1c1c(O)c(C)c(CCCCC)c(C)c1O
- Activity (Mus musculus [1]): Active
- Activity (Mus musculus [4]): Dose-Dependent Effect
- Activity (Mus musculus [3]): Active

Structure (SMILES): CCCCCc1cc(O)c([C@@H]2C=C(C)CC[C@H]2C(C)C)c(O)c1C
- Activity (Mus musculus [5]): Active
- inhibition (BMDM [6]): Active
- Activity (Mus musculus [7]): inactive
- Activity (Mus musculus [8]): Active
- inhibition (BMDM [9]): Active
- Activity (Mus musculus [10]): Active
- Activity (Mus musculus [11]): Active
- Activity (Mus musculus [12]): Active

Structure (SMILES): CCCCCc1cc(O)c(C/C=C(\C)CCC=C(C)C)c(O)c1C
- Activity (Mus musculus [7]): inactive
- Activity (Mus musculus [8]): inactive
- Activity (Mus musculus [13]): Active
- Activity (Mus musculus [14]): Active
- Activity (Mus musculus [10]): Active
- Activity (Mus musculus [15]): Active

Structure (SMILES): CCCCCc1cc(OC)c(C/C=C(\C)CCC=C(C)C)c(OC)c1C
- Activity (Mus musculus [1]): Active
- Activity (Mus musculus [2]): Active
- Activity (Mus musculus [3]): Active

Structure (SMILES): C=C(C)[C@@H]1CCC(C)=C[C@H]1c1c(OC)cc(CCCCC)c(C)c1OC
- Activity (Mus musculus [5]): Active
- Activity (Mus musculus [16]): inactive
- Activity (Mus musculus [17]): inactive
- Activity (Mus musculus [11]): Active
- Activity (Mus musculus [18]): Active
- Activity (Mus musculus [12]): Active

Structure (SMILES): C=C(C)[C@@H]1CCC(C)=C[C@H]1c1c(O)cc(O)c(C)c1CCCCC
- Activity (Mus musculus [13]): Active
- Activity (Mus musculus [14]): Active
- Activity (Mus musculus [19]): Dose-Dependent Effect

— ChEMBL document CHEMBL5380864, “Novel Synthesis of C-Methylated Phytocannabinoids Bearing Anti-inflammatory Properties” (J Med Chem, 2023)
